Laboratory results as given in PubChem BioAssay (NCI).
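Five concentrations, 48 hours, 96-well plates. GI50: concentration for 50% inhibition of growth. TGI denotes the concentration required for complete inhibition of growth.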

What was measured:
Experiment in all cases: DTP human tumour cell line panel, 48 h
[1] = test system: DMS 114 small cell lung
[2] = test system: CCRF-CEM leukemia
[3] = test system: KM20L2 colon
[4] = test system: RPMI-8226 leukemia
[5] = test system: DLD-1 colon
[6] = test system: SNB-19 CNS
[7] = test system: SK-MEL-28 melanoma
[8] = test system: OVCAR-3 ovarian
[9] = test system: HOP-18 NSCLC
[10] = test system: SN12C renal
[11] = test system: MDA-MB-231 breast
[12] = test system: HS 578T breast

Row | SMILES | TGI [1] | TGI [2] | TGI [3] | TGI [4] | TGI [5] | TGI [6] | TGI [7] | TGI [8] | TGI [9] | TGI [10] | TGI [11] | TGI [12] | GI50 [11] | GI50 [2] | GI50 [12] | GI50 [4] | GI50 [6] | GI50 [7] | GI50 [8] | GI50 [10]
1 | O=C(c1ccc(Cl)cc1)N(C(=S)N1CCN(c2ccccn2)CC1)C1CCCCC1 | > 100 µM | > 100 µM | > 100 µM | > 100 µM | > 100 µM | > 100 µM | > 100 µM | > 100 µM | > 100 µM | > 100 µM |  |  |  |  |  |  |  |  |  | 
2 | NC1=NS(=O)(=O)Nc2nc(-c3ccccc3)[nH]c21 | > 100 µM | > 100 µM | > 100 µM | > 100 µM | > 100 µM | > 100 µM | > 100 µM | > 100 µM | > 100 µM | > 100 µM |  |  |  |  |  |  |  |  |  | 
3 | C=C(NC(=O)C(=C)NC(=O)c1csc(C2=NC3c4csc(n4)C4NC(=O)c5csc(n5)C(C(C)(O)C(C)O)NC(=O)C5CSC(=N5)/C(=C/C)NC(=O)C(C(C)O)NC(=O)c5csc(n5)C3(CC2)NC(=O)C(C)NC(=O)C(=C)NC(=O)C(C)NC(=O)C(C(C)CC)NC2C=Cc3c(C(C)O)cc(nc3C2O)C(=O)OC4C)n1)C(N)=O (stereo unspecified) | 7.69 µM | 3.49 µM | 10.7 µM | 6.28 µM | 4.44 µM | 8.28 µM | 3.71 µM | > 25.8 µM | 16.8 µM | 3.93 µM |  |  |  |  |  |  |  |  |  | 
4 | C=C1C(=O)O[C@@H]2[C@H](O)[C@@H](C)[C@@H]3C=CC(=O)[C@@]3(C)[C@@H](OC(=O)/C(C)=C/C)[C@H]12 | 3.63 µM | 2.05 µM | 5.54 µM | 0.473 µM | 1.31 µM | 6.92 µM | 1.34 µM | 1.69 µM | 4.75 µM | 2.52 µM |  |  |  |  |  |  |  |  |  | 
5 | COc1c2c(c3ccccc3c1O)C1C=CC2C1 (stereo unspecified) | 19.6 µM | 97.6 µM | 45.7 µM | > 100 µM | 31.6 µM |  | 37.9 µM | 27.6 µM | 28.5 µM | 28.5 µM |  |  |  |  |  |  |  |  |  | 
6 | Cc1ccc(-c2nc(N/N=C/c3ccc(O)cc3)c3ccccc3n2)cc1 |  | > 100 µM |  | > 100 µM |  | > 100 µM | 81.5 µM | > 100 µM |  | 25.4 µM | 91.5 µM | > 100 µM |  |  |  |  |  |  |  | 
7 | CN(C)c1ccc(/C=C(\NC(=O)c2ccccc2)C2=NC(CCC(=O)O)C(=O)O2)cc1 (stereo unspecified) |  | > 50 µM |  | > 50 µM |  | > 50 µM | > 50 µM | > 50 µM |  | > 50 µM | > 50 µM | > 50 µM |  |  |  |  |  |  |  | 
8 | Cc1csc2c1-n1cccc1C2=O |  | > 100 µM |  | > 100 µM |  | > 100 µM | > 100 µM | > 100 µM |  | > 100 µM | > 100 µM | > 100 µM |  |  |  |  |  |  |  | 
9 | NC1=Nc2cc(Cl)ccc2Sc2nc3ccccc3n21 |  | 19.4 µM |  | > 100 µM |  | > 100 µM | > 100 µM | > 100 µM |  | > 100 µM | > 100 µM | > 100 µM |  |  |  |  |  |  |  | 
10 | C=C1C(O)C[C@H](OC(C)=O)[C@]2(C)C1C(OC(C)=O)[C@]1(C(C)(C)O)CC(O)C(C)=C1[C@@H](OC(=O)c1ccccc1)C2OC(C)=O (stereo partly specified) |  | > 10 µM |  | > 10 µM |  | > 10 µM | > 10 µM | > 10 µM |  | > 10 µM | > 10 µM | > 10 µM |  |  |  |  |  |  |  | 
11 | CC(=O)Nc1ccc2[nH]c(C(=O)N3CC(CCl)c4c3cc([N+](=O)[O-])c3ccccc43)cc2c1 (stereo unspecified) |  | 29 µM |  | > 27.8 µM |  | > 100 µM | > 100 µM | > 100 µM |  | > 100 µM | > 100 µM | > 95 µM |  |  |  |  |  |  |  | 
12 | Cn1cc(-c2ccc3cc(-c4ccc(CC(=O)Nc5cc(C(C)(C)C)on5)cc4)cnc3c2)cn1 |  | > 100 µM |  | > 100 µM |  | 8.68 µM | 5.25 µM | 12.7 µM |  | 10.4 µM | 12.2 µM | 15.2 µM | 2260 nM | 2170 nM | 397 nM | 2340 nM | 2180 nM | 1950 nM | 2490 nM | 1150 nM
13 | Cc1cccc(N2C(=O)C3c4[nH]c5ccccc5c4C4CCC(C(C)(C)C)CC4C3C2=O)c1 (stereo unspecified) |  | 23.5 µM |  | 25.8 µM |  | 26 µM | 31.4 µM | 27.4 µM |  | 30.5 µM | 21.3 µM | 29.2 µM |  |  |  |  |  |  |  | 
14 | CC(C)(C)c1cc(OCc2nn3c(Cc4ccccc4)nnc3s2)c(Cl)cc1OCc1nn2c(Cc3ccccc3)nnc2s1 |  | > 100 µM |  | > 100 µM |  | > 100 µM | > 100 µM | 60.4 µM |  | > 100 µM | > 100 µM | > 100 µM |  |  |  |  |  |  |  | 
15 | COc1ccc([C@@H]2CC(=O)N2)cc1 | > 100 µM | > 100 µM | > 100 µM | > 100 µM | > 100 µM | > 100 µM | > 100 µM |  | > 100 µM | > 100 µM |  |  |  |  |  |  |  |  |  | 
16 | COc1cc2c(c(O)c1OC)CC1CCC(=O)N1C2c1cccc2ccccc12 (stereo unspecified) |  | > 100 µM |  | > 100 µM |  | 45 µM | 52.2 µM | 44.6 µM |  | 34.2 µM | 33 µM | 69.3 µM |  |  |  |  |  |  |  | 
